Test results reported in patent publication US9556148B2, “N-cyanomethylamides as inhibitors of janus kinase” (CADILA HEALTHCARE LIMITED, priority 2013, dated 2017).
pIC50: −log10 of the molar value.

What was measured:
[1] = target: recombinant purified human JAK3 (Homo sapiens (Human), UniProt P52333); assay: in vitro JAK kinase assay on ADP Glo platform, JAK3; format: biochemical; details: 50 μM ATP, 1 hr at room temperature; read-out: JAK-3 IC50
Description: (§1) NCEs were screened using in vitro JAK (1, 2 and 3) kinase assay on ADP Glo platform (Promega). Fixed amount of recombinant purified human JAK (25 ng of JAK1 and 10 ng of JAK2 and JAK3 per reaction, from Life Technologies Ltd) were incubated with increasing concentration of NCEs in 1× kinase reaction buffer (40 mM Tris-Cl, pH7.5, 20 mM MgCl2, 0.1 mg/ml BSA and 50 μM DTT). Enzymatic reaction was initiated by adding a substrate cocktail containing 50 μM of ATP (final concentration) and 5 μg for JAK1 and 2.5 μg for JAK2 and JAK3 of polyGln4Tyr1 (Signal Chem) in total 25 μl of reaction in 96 well plate. The reaction was incubated at room temperature for 1 hr.
(§2) After 1 hr of incubation equal volume (25 μl per reaction) of ADP Glo was added and incubated at room temperature for 40 min.
(§3) This was followed by addition of kinase detection reagent (50 μl per reaction) and incubation at room temperature for 30 min. Finally, plate was read for luminescence at an integration time of 500 millisecond per well.
(§4) Data were plotted taking Enzyme with no inhibitor set as the 100% kinase activity. IC50 values were calculated using Graph Pad Prism software.

[2] = target: recombinant purified human JAK2 (Homo sapiens (Human), UniProt O60674); assay: in vitro JAK kinase assay on ADP Glo platform, JAK2; format: biochemical; details: 50 μM ATP, 1 hr at room temperature; read-out: JAK-2 IC50
Chain of recombinant purified human JAK2 (O60674 whole entry): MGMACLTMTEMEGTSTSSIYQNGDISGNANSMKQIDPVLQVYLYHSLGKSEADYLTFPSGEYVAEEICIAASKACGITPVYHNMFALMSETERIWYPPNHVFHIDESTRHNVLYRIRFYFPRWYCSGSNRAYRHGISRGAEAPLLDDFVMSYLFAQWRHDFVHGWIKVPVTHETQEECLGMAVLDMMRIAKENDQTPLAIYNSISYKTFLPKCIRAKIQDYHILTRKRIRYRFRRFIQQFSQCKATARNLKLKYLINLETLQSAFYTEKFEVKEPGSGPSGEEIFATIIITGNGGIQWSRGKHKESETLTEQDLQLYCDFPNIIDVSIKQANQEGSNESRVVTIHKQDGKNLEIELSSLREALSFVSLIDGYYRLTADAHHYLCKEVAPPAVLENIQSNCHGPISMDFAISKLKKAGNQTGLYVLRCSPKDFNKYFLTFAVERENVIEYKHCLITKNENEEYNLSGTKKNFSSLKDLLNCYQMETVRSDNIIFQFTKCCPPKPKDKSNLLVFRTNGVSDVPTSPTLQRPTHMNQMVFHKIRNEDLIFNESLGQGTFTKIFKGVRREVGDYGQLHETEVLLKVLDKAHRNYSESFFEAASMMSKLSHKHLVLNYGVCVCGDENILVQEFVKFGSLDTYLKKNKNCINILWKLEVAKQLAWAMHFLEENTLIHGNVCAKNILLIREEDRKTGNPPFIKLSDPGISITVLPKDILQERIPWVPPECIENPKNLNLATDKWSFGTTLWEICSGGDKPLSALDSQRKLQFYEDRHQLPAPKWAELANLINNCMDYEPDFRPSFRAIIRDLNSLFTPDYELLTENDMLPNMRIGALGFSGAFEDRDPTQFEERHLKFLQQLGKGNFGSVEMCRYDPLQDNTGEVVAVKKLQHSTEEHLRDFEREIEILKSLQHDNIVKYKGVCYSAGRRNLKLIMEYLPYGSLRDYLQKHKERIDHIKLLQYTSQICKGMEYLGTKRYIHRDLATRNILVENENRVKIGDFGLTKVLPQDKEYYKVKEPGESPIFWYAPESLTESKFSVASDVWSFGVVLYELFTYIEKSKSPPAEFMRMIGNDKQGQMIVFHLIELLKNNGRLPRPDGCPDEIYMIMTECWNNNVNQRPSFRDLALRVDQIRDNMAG
Description: as §1, §2, §3, §4

[3] = test system: PGPS arthritis, PAW inflammation; assay: Peptidogylcan Polysaccharide Polymers (PGPS) arthritis; format: in vivo, Sprague dawley rats; details: rats, values for day 16
Description: Female Sprague dawley rats were primed with an intra-articular injection of 20 μl of PGPS at 0.5 mg/ml of rhamnose in the right ankle. At 2 weeks the ankle diameters were measured with plethysmometer and rats assigned to groups of similar distribution of initial joint diameters. Rats then received their first dose of compound followed 1 h later by an i.v. injection of 0.5 ml of PGPS (0.5 mg/ml of rhamnose) in the tail vein. Compounds were dosed at 10 mg/kg and ankle diameters measured for 3 days [i.e. day 15, 16, 17]. Values are given for day 16.

[4] = target: recombinant purified human JAK1 (Homo sapiens (Human), UniProt P23458); assay: in vitro JAK kinase assay on ADP Glo platform, JAK1; format: biochemical; details: 50 μM ATP, 1 hr at room temperature
Chain of recombinant purified human JAK1 (P23458 whole entry): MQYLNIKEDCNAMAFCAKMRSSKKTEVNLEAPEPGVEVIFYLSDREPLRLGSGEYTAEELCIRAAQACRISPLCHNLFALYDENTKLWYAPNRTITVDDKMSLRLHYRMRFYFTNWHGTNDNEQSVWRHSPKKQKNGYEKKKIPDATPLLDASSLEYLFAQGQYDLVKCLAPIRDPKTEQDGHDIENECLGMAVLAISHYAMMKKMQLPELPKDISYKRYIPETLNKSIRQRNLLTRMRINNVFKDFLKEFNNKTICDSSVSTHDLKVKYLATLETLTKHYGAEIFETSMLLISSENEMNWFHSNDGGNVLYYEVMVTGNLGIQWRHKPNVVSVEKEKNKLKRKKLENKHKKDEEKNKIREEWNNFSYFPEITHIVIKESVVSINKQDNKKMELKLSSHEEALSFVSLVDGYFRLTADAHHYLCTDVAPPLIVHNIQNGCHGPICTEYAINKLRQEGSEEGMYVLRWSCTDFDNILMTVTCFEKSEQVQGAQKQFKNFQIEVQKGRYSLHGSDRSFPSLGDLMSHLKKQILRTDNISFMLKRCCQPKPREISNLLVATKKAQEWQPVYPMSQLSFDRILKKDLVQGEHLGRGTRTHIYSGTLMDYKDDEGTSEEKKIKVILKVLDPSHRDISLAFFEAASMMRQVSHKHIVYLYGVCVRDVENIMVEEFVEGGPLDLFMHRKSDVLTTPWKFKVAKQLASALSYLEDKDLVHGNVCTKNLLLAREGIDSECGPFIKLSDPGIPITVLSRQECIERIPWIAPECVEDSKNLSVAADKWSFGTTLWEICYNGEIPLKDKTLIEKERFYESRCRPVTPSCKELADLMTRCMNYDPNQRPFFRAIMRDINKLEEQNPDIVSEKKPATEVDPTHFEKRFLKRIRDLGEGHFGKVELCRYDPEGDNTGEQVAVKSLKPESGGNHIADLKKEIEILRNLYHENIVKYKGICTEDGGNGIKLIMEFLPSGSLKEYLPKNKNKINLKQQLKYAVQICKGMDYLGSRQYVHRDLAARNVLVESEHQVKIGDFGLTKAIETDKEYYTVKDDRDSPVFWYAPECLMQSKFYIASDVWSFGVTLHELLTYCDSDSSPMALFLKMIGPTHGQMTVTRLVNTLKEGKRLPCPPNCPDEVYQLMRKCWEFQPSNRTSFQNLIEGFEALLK
Description: as §1, §2, §3, §4

[5] = target: JAK-3 (Homo sapiens (Human), UniProt P52333); details: reported in WO 2008109943; read-out: reported in vitro JAK-3 inhibition; cited from earlier work
Chain of JAK-3 (P52333 whole entry, species assumed): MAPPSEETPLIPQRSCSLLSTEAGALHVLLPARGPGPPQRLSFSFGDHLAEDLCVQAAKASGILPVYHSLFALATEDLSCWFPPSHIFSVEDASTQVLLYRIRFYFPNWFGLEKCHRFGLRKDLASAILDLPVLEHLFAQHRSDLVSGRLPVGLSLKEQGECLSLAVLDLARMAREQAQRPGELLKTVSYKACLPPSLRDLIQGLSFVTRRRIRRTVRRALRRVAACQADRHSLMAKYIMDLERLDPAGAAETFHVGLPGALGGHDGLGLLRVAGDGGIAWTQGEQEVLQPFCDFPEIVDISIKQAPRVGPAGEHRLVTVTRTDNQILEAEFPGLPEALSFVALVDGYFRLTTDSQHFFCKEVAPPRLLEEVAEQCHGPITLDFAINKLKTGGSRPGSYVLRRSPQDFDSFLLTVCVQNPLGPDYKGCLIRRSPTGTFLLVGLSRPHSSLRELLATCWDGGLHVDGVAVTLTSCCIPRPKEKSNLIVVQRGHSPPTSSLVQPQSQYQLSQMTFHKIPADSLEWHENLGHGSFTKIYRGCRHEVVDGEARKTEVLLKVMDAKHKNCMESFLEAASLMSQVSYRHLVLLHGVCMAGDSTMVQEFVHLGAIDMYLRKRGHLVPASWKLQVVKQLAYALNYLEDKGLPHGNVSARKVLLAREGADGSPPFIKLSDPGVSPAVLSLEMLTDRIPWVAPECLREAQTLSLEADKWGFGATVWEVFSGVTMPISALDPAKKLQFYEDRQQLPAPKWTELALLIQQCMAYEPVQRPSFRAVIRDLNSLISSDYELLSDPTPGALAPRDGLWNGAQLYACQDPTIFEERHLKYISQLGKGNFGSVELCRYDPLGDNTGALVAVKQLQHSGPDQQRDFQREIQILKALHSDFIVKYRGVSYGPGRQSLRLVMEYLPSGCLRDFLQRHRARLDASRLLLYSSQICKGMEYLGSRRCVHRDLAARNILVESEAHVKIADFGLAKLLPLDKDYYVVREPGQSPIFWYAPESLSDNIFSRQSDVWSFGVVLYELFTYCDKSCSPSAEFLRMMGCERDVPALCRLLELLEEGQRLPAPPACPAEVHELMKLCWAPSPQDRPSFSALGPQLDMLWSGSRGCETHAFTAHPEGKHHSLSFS

[6] = target: JAK 2 (Homo sapiens (Human), UniProt O60674); details: reported in WO 2008109943; read-out: reported in vitro JAK 2 inhibition; cited from earlier work
Chain of JAK 2 (O60674 whole entry, species assumed): as the sequence (O60674 whole entry) above

Chain of recombinant purified human JAK3 (P52333 whole entry): as the sequence (P52333 whole entry, species assumed) above

With `N#CCNC(=O)c1ccc(-c2ccnc(Nc3ccc(N4CCC(c5n[nH]c(=O)o5)CC4)cc3)n2)cc1` [Example 29, N-(cyanomethyl)-4-(2-((4-(4-(5-oxo-4,5-dihydro-1,3,4-oxadiazol-2-yl)piperidin-1-yl)phenyl)amino)pyrimidin-4-yl)benzamide] as the compound, how does the pIC50 [1] read?
The pIC50 was 7.25.

And the pIC50 [2]?
The pIC50 was 7.68.

What about the “% Reduction in PAW inflammation at dose 10 mg/Kg” value [3] of the same compound?
Its value is 43%.

And the pIC50 [4]?
Its pIC50 is 7.82.

With `N#CCNC(=O)c1ccc(-c2ccnc(Nc3ccc(ON4CCC(N5CCCC5)CC4)cc3)n2)cc1` [compounds 2] as the compound, how does the pIC50 [5] read?
The pIC50 was over 4.70.

And the pIC50 [6]?
Its pIC50 is over 6.00.

With `N#CCNC(=O)c1ccc(-c2ccnc(Nc3ccc(N4CCC(N5CC6CC(C5)O6)CC4)cc3)n2)cc1` [Example 17, 4-(2-((4-(4-(6-oxa-3-azabicyclo[3.1.1]heptan-3-yl)piperidin-1-yl)phenyl)amino)pyrimidin-4-yl)-N-(cyanomethyl)benzamide] as the compound, how does the pIC50 [1] read?
Its pIC50 is 7.16.

And the pIC50 [2]?
Its pIC50 is 8.10.

And the “% Reduction in PAW inflammation at dose 10 mg/Kg” value [3]?
Its value is 57%.

And the pIC50 [4]?
The pIC50 was 7.89.
